From patent US10239843B2 (CANCER RESEARCH TECHNOLOGY LIMITED, priority 2014, dated 2019)
Like-named read-outs stand apart in the source and are kept apart here.

Key:
[1] = test system: PARG in HeLa cell line; experiment: PARG cell assay (PAR chain immunofluorescence after MMS); assay type: cell-based; settings: HeLa cells, MMS treatment, read-out: PARG Cell IC50
Summary of the method: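 HeLa cells were dosed with compound for 1 h, then given MMS at 50 μg/mL final for a further hour. Cells were methanol-fixed, permeabilised and stained overnight at 4° C with anti-PAR monoclonal antibody. Retained nuclear PAR chains, detected by indirect immunofluorescence, indicate PARG inhibition.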

[2] = molecular target: Human Full Length PARG (Homo sapiens (Human), UniProt Q86W56); experiment: PARG enzyme assay (TR-FRET); assay type: biochemical; settings: read-out: PARG Biochem IC50
Sequence of Human Full Length PARG (Q86W56 whole entry): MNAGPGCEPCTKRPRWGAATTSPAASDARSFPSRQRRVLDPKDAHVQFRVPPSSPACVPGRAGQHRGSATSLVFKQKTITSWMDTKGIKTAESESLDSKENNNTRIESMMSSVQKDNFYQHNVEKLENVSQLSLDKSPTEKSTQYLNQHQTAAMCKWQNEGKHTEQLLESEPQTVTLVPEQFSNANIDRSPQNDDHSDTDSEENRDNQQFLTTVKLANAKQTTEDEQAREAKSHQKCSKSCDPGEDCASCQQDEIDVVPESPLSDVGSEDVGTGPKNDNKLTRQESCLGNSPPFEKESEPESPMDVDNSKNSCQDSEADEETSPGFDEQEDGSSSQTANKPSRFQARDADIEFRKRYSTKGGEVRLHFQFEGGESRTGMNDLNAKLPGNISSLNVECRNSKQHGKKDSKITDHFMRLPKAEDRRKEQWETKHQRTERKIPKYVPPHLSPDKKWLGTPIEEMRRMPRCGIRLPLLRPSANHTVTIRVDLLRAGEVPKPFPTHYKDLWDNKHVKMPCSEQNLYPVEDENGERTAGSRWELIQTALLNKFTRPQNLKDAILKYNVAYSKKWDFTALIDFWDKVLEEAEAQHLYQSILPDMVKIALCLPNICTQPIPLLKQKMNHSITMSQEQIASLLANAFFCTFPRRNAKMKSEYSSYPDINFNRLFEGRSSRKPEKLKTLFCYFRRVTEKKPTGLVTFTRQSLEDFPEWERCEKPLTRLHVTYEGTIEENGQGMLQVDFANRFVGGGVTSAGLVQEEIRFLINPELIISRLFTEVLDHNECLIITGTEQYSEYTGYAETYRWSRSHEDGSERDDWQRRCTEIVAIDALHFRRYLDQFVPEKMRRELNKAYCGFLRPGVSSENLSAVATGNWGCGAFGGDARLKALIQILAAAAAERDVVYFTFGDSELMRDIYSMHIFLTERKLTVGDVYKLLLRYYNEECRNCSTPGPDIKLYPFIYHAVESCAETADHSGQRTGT

Structure (SMILES)	IC50 [1] [µM]	IC50 [2] [µM]	IC50 ([1]; Homo sapiens) [µM]
Cc1oncc1Cn1c(=O)c2cc(S(=O)(=O)NC3(C)CC3)ccc2n(C)c1=O [Example 506, 1-Methyl-N-(1-methylcyclopropyl)-3-[(5-methylisoxazol-4-yl)methyl]-2,4-dioxo-quinazoline-6-sulfonamide]		0.77	0.539
Cc1cc(Cn2c(=O)c3cc(S(=O)(=O)NC4(CF)CC4)ccc3n(Cc3ccc(F)cc3)c2=O)on1 [Example 518, N-[1-(Fluoromethyl)cyclopropyl]-1-[(4-fluorophenyl)methyl]-3-[(3-methylisoxazol-5-yl)methyl]-2,4-dioxo-quinazoline-6-sulfonamide]		0.117	0.095
CCn1c(=O)n(Cc2cc(C)no2)c(=O)c2cc(S(=O)(=O)NC3(CF)CC3)ccc21 [Example 520, 1-Ethyl-N-[1-(fluoromethyl)cyclopropyl]-3-[(3-methylisoxazol-5-yl)methyl]-2,4-dioxo-quinazoline-6-sulfonamide]	0.092	0.162	
Cc1cc(Cn2c(=O)c3cc(S(=O)(=O)NC4(CF)CC4)ccc3n(Cc3cc(C)no3)c2=O)on1 [Example 521, N-[1-(Fluoromethyl)cyclopropyl]-1,3-bis[(3-methylisoxazol-5-yl)methyl]-2,4-dioxo-quinazoline-6-sulfonamide]		0.054	0.092
Cc1cc(Cn2c(=O)c3cc(S(=O)(=O)NC4(CF)CC4)ccc3n(CC3COC3)c2=O)on1 [Example 522, N-[1-(Fluoromethyl)cyclopropyl]-3-[(3-methylisoxazol-5-yl)methyl]-1-(oxetan-3-ylmethyl)-2,4-dioxo-quinazoline-6-sulfonamide]		0.112	0.923
Cc1cc(Cn2c(=O)c3cc(S(=O)(=O)NC4(CF)CC4)ccc3n(CC#N)c2=O)on1 [Example 523, 1-(Cyanomethyl)-N-[1-(fluoromethyl)cyclopropyl]-3-[(3-methylisoxazol-5-yl)methyl]-2,4-dioxo-quinazoline-6-sulfonamide]		0.411	0.571
Cc1cc(Cn2c(=O)c3cc(S(=O)(=O)NC4(CF)CC4)ccc3n(CC3CCOC3)c2=O)on1 (centres unmarked) [Example 524, N-[1-(Fluoromethyl)cyclopropyl]-3-[(3-methylisoxazol-5-yl)methyl]-2,4-dioxo-1-(tetrahydrofuran-3-ylmethyl)quinazoline-6-sulfonamide]		0.125	0.31
Cc1ccc(Cn2c(=O)n(Cc3cnn(C)c3)c(=O)c3cc(S(=O)(=O)NC4(CF)CC4)ccc32)nc1 [Example 537, N-[1-(Fluoromethyl)cyclopropyl]-3-[(1-methylpyrazol-4-yl)methyl]-1-[(5-methyl-2-pyridyl)methyl]-2,4-dioxo-quinazoline-6-sulfonamide]		0.189	0.181
Cn1cc(Cn2c(=O)c3cc(S(=O)(=O)NC4(CF)CC4)ccc3n(Cc3cccc(C#N)n3)c2=O)cn1 [Example 538, 1-[(6-Cyano-2-pyridyl)methyl]-N-[1-(fluoromethyl)cyclopropyl]-3-[(1-methylpyrazol-4-yl)methyl]-2,4-dioxo-quinazoline-6-sulfonamide]	0.393	0.162	
Cc1cncc(Cn2c(=O)n(Cc3cnn(C)c3)c(=O)c3cc(S(=O)(=O)NC4(CF)CC4)ccc32)c1 [Example 539, N-[1-(Fluoromethyl)cyclopropyl]-3-[(1-methylpyrazol-4-yl)methyl]-1-[(5-methyl-3-pyridyl)methyl]-2,4-dioxo-quinazoline-6-sulfonamide]		0.073	0.187
Cc1cc(Cn2c(=O)n(Cc3cnn(C)c3)c(=O)c3cc(S(=O)(=O)NC4(CF)CC4)ccc32)ccn1 [Example 541, N-[1-(Fluoromethyl)cyclopropyl]-3-[(1-methylpyrazol-4-yl)methyl]-1-[(2-methyl-4-pyridyl)methyl]-2,4-dioxo-quinazoline-6-sulfonamide]		0.113	0.227
Cn1cc(Cn2c(=O)c3cc(S(=O)(=O)NC4(CF)CC4)ccc3n(CCF)c2=O)cn1 [Example 544, 1-(2-Fluoroethyl)-N-[1-(fluoromethyl)cyclopropyl]-3-[(1-methylpyrazol-4-yl)methyl]-2,4-dioxo-quinazoline-6-sulfonamide]		0.151	0.086

The remaining compounds from weak to strong by IC50 [2], led by results:

IC50 [1] [µM]	IC50 [2] [µM]	IC50 ([1]; Homo sapiens) [µM]	Structure (SMILES)
	0.604	0.35	Cc1cc(Cn2c(=O)c3cc(S(=O)(=O)NC4(C)CC4)ccc3n(CC#N)c2=O)on1 [Example 503, 1-(Cyanomethyl)-N-(1-methylcyclopropyl)-3-[(3-methylisoxazol-5-yl)methyl]-2,4-dioxo-quinazoline-6-sulfonamide]
	0.579	0.698	Cc1nnc(Cn2c(=O)c3cc(S(=O)(=O)NC4(CF)CC4)ccc3n(C)c2=O)s1 [Example 515, N-[1-(Fluoromethyl)cyclopropyl]-1-methyl-3-[(5-methyl-1,3,4-thiadiazol-2-yl)methyl]-2,4-dioxo-quinazoline-6-sulfonamide]
0.35	0.472		Cc1nnc(Cn2c(=O)c3cc(S(=O)(=O)NC4(C)CC4)ccc3n(C)c2=O)s1 [Example 500, 1-Methyl-N-(1-methylcyclopropyl)-3-[(5-methyl-1,3,4-thiadiazol-2-yl)methyl]-2,4-dioxo-quinazoline-6-sulfonamide]
	0.443	0.807	Cc1cc(Cn2c(=O)[nH]c3ccc(S(=O)(=O)NC4(CF)CC4)cc3c2=O)on1 [Example 516, N-[1-(Fluoromethyl)cyclopropyl]-3-[(3-methylisoxazol-5-yl)methyl]-2,4-dioxo-1H-quinazoline-6-sulfonamide]
	0.384	0.178	Cc1cc(Cn2c(=O)c3cc(S(=O)(=O)NC4(CF)CC4)ccc3n(C)c2=O)on1 [Example 514, N-[1-(Fluoromethyl)cyclopropyl]-1-methyl-3-[(3-methylisoxazol-5-yl)methyl]-2,4-dioxo-quinazoline-6-sulfonamide]
	0.349	0.33	Cn1cc(Cn2c(=O)c3cc(S(=O)(=O)NC4(CF)CC4)ccc3n(Cc3ncccc3F)c2=O)cn1 [Example 542, N-[1-(Fluoromethyl)cyclopropyl]-1-[(3-fluoro-2-pyridyl)methyl]-3-[(1-methylpyrazol-4-yl)methyl]-2,4-dioxo-quinazoline-6-sulfonamide]
	0.287	0.282	Cc1ncc(Cn2c(=O)c3cc(S(=O)(=O)NC4(CF)CC4)ccc3n(C)c2=O)s1 [Example 533, N-[1-(Fluoromethyl)cyclopropyl]-1-methyl-3-[(2-methylthiazol-5-yl)methyl]-2,4-dioxo-quinazoline-6-sulfonamide]
	0.284	0.171	Cc1ncc(Cn2c(=O)c3cc(S(=O)(=O)NC4(C)CC4)ccc3n(CC#N)c2=O)s1 [Example 502, 1-(Cyanomethyl)-N-(1-methylcyclopropyl)-3-[(2-methylthiazol-5-yl)methyl]-2,4-dioxo-quinazoline-6-sulfonamide]
0.376	0.261		CCCCn1c(=O)n(Cc2cc(C)no2)c(=O)c2cc(S(=O)(=O)NC3(CF)CC3)ccc21 [Example 536, 1-Butyl-N-[1-(fluoromethyl)cyclopropyl]-3-[(3-methylisoxazol-5-yl)methyl]-2,4-dioxo-quinazoline-6-sulfonamide]
	0.191	0.147	CCCn1c(=O)n(Cc2cc(C)no2)c(=O)c2cc(S(=O)(=O)NC3(CF)CC3)ccc21 [Example 535, N-[1-(Fluoromethyl)cyclopropyl]-3-[(3-methylisoxazol-5-yl)methyl]-2,4-dioxo-1-propyl-quinazoline-6-sulfonamide]
0.315	0.169		COCCCn1c(=O)n(Cc2cc(C)no2)c(=O)c2cc(S(=O)(=O)NC3(CF)CC3)ccc21 [Example 525, N-[1-(Fluoromethyl)cyclopropyl]-1-(3-methoxypropyl)-3-[(3-methylisoxazol-5-yl)methyl]-2,4-dioxo-quinazoline-6-sulfonamide]
	0.16	0.096	Cn1cc(Cn2c(=O)c3cc(S(=O)(=O)NC4(CF)CC4)ccc3n(Cc3cccc(F)n3)c2=O)cn1 [Example 540, N-[1-(Fluoromethyl)cyclopropyl]-1-[(6-fluoro-2-pyridyl)methyl]-3-[(1-methylpyrazol-4-yl)methyl]-2,4-dioxo-quinazoline-6-sulfonamide]
0.087	0.12		C#CCn1c(=O)n(Cc2cc(C)no2)c(=O)c2cc(S(=O)(=O)NC3(CF)CC3)ccc21 [Example 532, N-[1-(Fluoromethyl)cyclopropyl]-3-[(3-methylisoxazol-5-yl)methyl]-2,4-dioxo-1-prop-2-ynyl-quinazoline-6-sulfonamide]
	0.058	0.07	Cn1cc(Cn2c(=O)c3cc(S(=O)(=O)NC4(CF)CC4)ccc3n(Cc3ccc(C#N)cc3)c2=O)cn1 [Example 543, 1-[(4-Cyanophenyl)methyl]-N-[1-(fluoromethyl)cyclopropyl]-3-[(1-methylpyrazol-4-yl)methyl]-2,4-dioxo-quinazoline-6-sulfonamide]
	0.056	0.041	Cc1cc(Cn2c(=O)c3cc(S(=O)(=O)NC4(CF)CC4)ccc3n(CC3CC3)c2=O)on1 [Example 517, 1-(Cyclopropylmethyl)-N-[1-(fluoromethyl)cyclopropyl]-3-[(3-methylisoxazol-5-yl)methyl]-2,4-dioxo-quinazoline-6-sulfonamide]
	0.05	0.312	Cc1cc(Cn2c(=O)c3cc(S(=O)(=O)NC4(CF)CC4)ccc3n(Cc3cc(C)nn3C)c2=O)on1 [Example 519, 1-[(2,5-Dimethylpyrazol-3-yl)methyl]-N-[1-(fluoromethyl)cyclopropyl]-3-[(3-methylisoxazol-5-yl)methyl]-2,4-dioxo-quinazoline-6-sulfonamide]
